Structures are written as SMILES.

One assay concerns the target T1, RAR α (Homo sapiens, UniProt P10276).
T1 sequence (P10276 1-462): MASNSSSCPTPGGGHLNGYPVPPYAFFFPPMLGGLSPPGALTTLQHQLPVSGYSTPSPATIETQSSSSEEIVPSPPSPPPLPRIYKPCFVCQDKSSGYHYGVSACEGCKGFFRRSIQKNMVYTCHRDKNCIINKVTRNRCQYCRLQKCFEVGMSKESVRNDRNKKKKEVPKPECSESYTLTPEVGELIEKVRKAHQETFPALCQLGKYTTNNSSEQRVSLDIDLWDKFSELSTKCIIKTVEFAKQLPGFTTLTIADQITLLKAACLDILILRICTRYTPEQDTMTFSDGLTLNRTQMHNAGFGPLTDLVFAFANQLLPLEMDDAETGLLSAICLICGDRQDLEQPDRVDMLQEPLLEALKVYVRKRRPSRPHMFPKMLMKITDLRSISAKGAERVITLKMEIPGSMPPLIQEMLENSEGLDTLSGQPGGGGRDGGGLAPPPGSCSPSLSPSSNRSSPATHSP
The experiment in a line: RAR α Kd. It counts as binding. To be noted: Table 3.

The target in the next assay is T2, CYP26A (P450RAI-1) (Homo sapiens, UniProt O43174).
T2 construct: expressed in transfected cells; host or cells: HeLa
T2 sequence (O43174 1-497): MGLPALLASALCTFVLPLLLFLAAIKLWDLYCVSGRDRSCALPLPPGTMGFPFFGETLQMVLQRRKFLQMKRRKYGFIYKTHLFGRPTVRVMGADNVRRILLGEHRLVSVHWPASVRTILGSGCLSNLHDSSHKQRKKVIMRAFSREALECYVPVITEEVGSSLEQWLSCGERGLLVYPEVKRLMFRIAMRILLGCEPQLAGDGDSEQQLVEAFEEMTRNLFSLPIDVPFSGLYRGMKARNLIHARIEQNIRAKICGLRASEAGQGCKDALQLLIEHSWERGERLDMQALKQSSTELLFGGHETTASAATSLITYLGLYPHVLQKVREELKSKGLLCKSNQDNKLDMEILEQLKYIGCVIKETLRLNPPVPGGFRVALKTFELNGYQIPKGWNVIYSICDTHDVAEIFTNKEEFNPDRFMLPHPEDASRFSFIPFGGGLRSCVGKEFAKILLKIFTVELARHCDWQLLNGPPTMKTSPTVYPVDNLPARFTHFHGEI
Description: Cell-based inhibition of RA metabolism in CYP26A stably transfected HeLa cells. Conditions: for IC50: Table 3, stably transfected HeLa cells, [3H]-RA, 3 hours at 37° C., read-out: CYP26A Intact cells IC50. In short, it runs like this:
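Stably transfected HeLa cells (5×10^5/well) in MEM with 10% FBS and 0.05 μCi [3H]-RA, compounds at 10, 1 or 0.1 μM final, 3 h at 37° C. Retinoids extracted by modified Bligh-Dyer (methylene chloride); aqueous radioactivity counted; ID50 for 50% inhibition of RA metabolism derived from log-transformed data.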

The target of another assay is T3, RAR β (Homo sapiens, UniProt P10826).
T3 sequence (P10826 1-455): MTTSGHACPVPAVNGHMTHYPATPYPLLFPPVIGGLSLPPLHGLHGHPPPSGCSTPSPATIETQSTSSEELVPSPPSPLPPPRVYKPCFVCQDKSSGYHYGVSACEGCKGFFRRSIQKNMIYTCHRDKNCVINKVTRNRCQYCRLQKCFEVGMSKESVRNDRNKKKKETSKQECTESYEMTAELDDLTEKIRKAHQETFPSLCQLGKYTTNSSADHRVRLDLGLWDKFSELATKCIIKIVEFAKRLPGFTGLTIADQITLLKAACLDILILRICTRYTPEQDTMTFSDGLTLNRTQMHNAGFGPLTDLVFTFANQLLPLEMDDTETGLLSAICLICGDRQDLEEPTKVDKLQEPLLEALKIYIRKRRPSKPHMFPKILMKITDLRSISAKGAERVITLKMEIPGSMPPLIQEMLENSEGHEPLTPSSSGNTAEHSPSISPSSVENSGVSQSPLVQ
Description: RAR β Kd. It counts as binding. Conditions: Table 3.

What is called Kd is a measure of binding affinity in units of concentration. Low readings indicate a tighter complex, high ones a looser complex. Usually IC50 stands for the point on the concentration scale where inhibition reaches its midpoint. In the case of `CN(C1CC1)C1CCC(C)(C)c2cc(C#Cc3ccc(C(C)(C)C(=O)O)cc3)ccc21` (stereo not shown) [AGN 198790], the Kd at RAR α and at RAR β was over 10 µM each time. For the same compound, the 50% inhibitory concentration (IC50) on CYP26A (P450RAI-1) came to 0.6 µM. Moreover, the “selectivity for CYP26A relative to CYP26B” value at CYP26A (P450RAI-1) (ratio of ID50 values) was “at least 10 fold”.
As for `CN(Cc1cccc(C#Cc2ccc(/C=C/C(=O)O)cc2)c1)C1CC1` [AGN 199713], the Kd at RAR α and at RAR β was over 10 µM throughout. The IC50 at CYP26A (P450RAI-1) is over 10 µM.

Values taken from patent US7468391B2, “Methods for treating retinoid responsive disorders using selective inhibitors of CYP26A and CYP26B” (Allergan, Inc., priority 2003, dated 2008).
